Assay results reported in patent US8748448B2, “Combination analgesic employing opioid agonist and neutral antagonist” (AIKO Biotechnology, priority 2007, dated 2014).
Several values for one entry are separate records, joined by “and”; a condition that tells them apart may be missing. Equal entries are not always repeated. Where two headings read alike, the source gives them in different places.

Tests used:
[1] = Oral bioavailability of the neutral antagonists
[2] = tested on: hydrocodone-induced antinociception; assay: 55° C. warm-water tail-flick assay: inhibition of hydrocodone-induced antinociception; format: in vivo, mice
[3] = Concentrations in plasma and brain tissue after i.p. injection (LC/MS/MS); settings: for change of levels at 60 min from those measured at 10 min: after i.p. injection; for concentration at 10 min / concentration at 60 min: mouse, 1 mg/kg
[4] = tested on: hydrocodone effects: GI transit (peripheral) vs. antinociception (central); assay: Peripheral vs. central potency, (antinociception ID50)/(GI transit ID50); format: in vivo, mice; settings: for fold more potent peripherally than centrally: over all administration routes
[5] = Neutral antagonist comparison (Table 3); settings: for Equivalent dose (as compared to 1.5 mg to 5 mg 6β-naltrexol): 70 kg subject; for potency, times less potent than 6β-naltrexol: stated as 'may be'/'probably'
[6] = tested on: hydrocodone induced GI inhibition; assay: GI transit assay (charcoal meal): reversal of hydrocodone induced GI inhibition; settings: for induction of diarrhea: on administration of the antagonist
[7] = po; cited from earlier work
[8] = tested on: opioid withdrawal in methadone-dependent subjects; assay: Double-blind ascending dose study in methadone maintenance subjects: withdrawal scales, VAS, vital signs, pupillometry, tolerability
[9] = humans; literature; cited from earlier work
[10] = 1 mg/kg i.p., 60 min after injection
[11] = 10 mg/kg i.p., 10 min after injection
[12] = 10 mg/kg i.p., 60 min after injection
[13] = antagonist i.v., hydrocodone A90 3.2 mg/kg i.v.
[14] = antagonist p.o., hydrocodone A90 3.2 mg/kg i.v.
[15] = antagonist p.o. co-administered with hydrocodone A90 32 mg/kg p.o.

## 6β-naltrexamide
[1]; humans, estimated
  oral bioavailability (into the circulation), estimated: approximately 25%
[1]; species not stated
  oral bioavailability: ~20%
[2]; mouse, in vivo
  potency in blocking hydrocodone-induced antinociception, lower than that of 6β-naltrexol: approximately 10 fold
  time of peak effect of antinociception inhibition: 120 min and 120 to 180 min
[3]; 1 mg/kg i.p., 10 min after injection
  Brain concentration: 6 ± 1 ng/g
[3]; 1 mg/kg i.p., 10 min after injection, mean±SD, n=3
  Plasma concentration: 115 ± 2 ng/mL
[3]; [10]
  Brain concentration: 4 ± 1 ng/g
  Plasma concentration: 18 ± 1 ng/mL
[3]; [11]
  Brain concentration: 27 ± 6 ng/g
  Plasma concentration: 933 ± 221 ng/mL
[3]; [12]
  Brain concentration: 24 ± 1 ng/g
  Plasma concentration: 166 ± 77 ng/mL
[3]
  change of levels at 60 min from those measured at 10 min: had not changed
[3]; mice, preliminary experiments
  blood half-life compared with 6β-naltrexol: longer blood half-life than 6β-naltrexol
[4]; animal experiments
  peripheral over central antagonist selectivity compared to 6β-naltrexol: somewhat higher
[4]; antagonist p.o./hydrocodone i.v.
  Fold-Shift (antinociception ID50)/(GI transit ID50): 14 and 14.3
[4]; mice, oral administration, earlier experiments
  selectivity in blocking peripheral over central opioid effects: approximately twenty-fold
[4]
  fold more potent peripherally than centrally: 14-25 fold
[5]
  Half-life of active metabolites: Estimated >12 hours
  potency, times less potent than 6β-naltrexol: 2-3 fold
[5]; given orally
  Bioavailability for CNS (central) effects: ~25%
  Equivalent dose (as compared to 1.5 mg to 5 mg 6β-naltrexol): 3 to 8 mg
[6]; animal experiments
  potency in blocking peripheral effects, lower than 6β-naltrexol on a mg/kg basis: 2-3 fold
[6]; [13]
  GI Transit ID50: 0.173 mg/kg
[6]; antagonist p.o./hydrocodone p.o., full dose-response curves not available
  GI Transit ID50: 1 to 2 mg/kg
[6]; [14]
  GI Transit ID50: 1.92 mg/kg
[6]; i.v. administration
  GI transit ID50, expected: 0.1 to 0.2 mg/kg
[6]
  induction of diarrhea: absent
[6]; p.o. administration
  GI transit ID50, expected: 1 to 2 mg/kg

## N[C@@H]1CC[C@@]2(O)[C@H]3Cc4ccc(O)c5c4[C@@]2(CCN3CC2CC2)[C@H]1O5 [6β-naltrexamine]
[5]; given orally
  Equivalent dose (as compared to 1.5 mg to 5 mg 6β-naltrexol): 7.5 to 20 mg
[5]
  potency, times less potent than 6β-naltrexol: 3-6 fold

## COc1ccc2c3c1O[C@H]1[C@@H](O)C=C[C@H]4[C@@H](C2)N(C)CC[C@@]341 [Codeine]
[7]
  Bioavailability for CNS (central) effects: ≈90%

## COc1ccc2c3c1O[C@H]1C(=O)CC[C@H]4[C@@H](C2)N(C)CC[C@]314 [Hydrocodone]
[7]
  Bioavailability for CNS (central) effects: ≧80%

## CN1CC[C@]23CCCC[C@H]2[C@H]1Cc1ccc(O)cc13 [Levorphanol]
[7]
  Bioavailability for CNS (central) effects: 70%

## C=CCN1CC[C@]23c4c5ccc(O)c4O[C@H]2C(=O)CC[C@@]3(O)[C@H]1C5 [Naloxone, naloxone, reference compound]
[8]; 0.050 mg, methadone-dependent subjects
  withdrawal symptoms: detectable withdrawal symptoms
[8]; dose 0.05 mg
  Diastolic BP, peak value: 76.5 ± 3.8 mmHg
  Heart Rate, peak value: 63.5 ± 8.0 bpm
  SOWS (total), peak value: 3.0 ± 2.8
  VAS Any Drug Effect, peak value: 15.4 ± 23.7
  VAS Bad Drug Effect, peak value: 13.5 ± 25.0
  VAS Good Drug Effect, peak value: 10.4 ± 18.9
  VAS Opioid Withdrawal, peak value: 5.6 ± 8.2
  VAS Sickness, peak value: 4.6 ± 6.5
[8]; dose 0.05 mg, mean ± standard deviation
  OOWS (total), peak value: 2.5 ± 0.6

## O=C1CC[C@@]2(O)[C@H]3Cc4ccc(O)c5c4[C@@]2(CCN3CC2CC2)[C@H]1O5 [Naltrexone, naltrexone, reference compound]
[2]; antagonist i.v. pretreatment, hydrocodone A90 3.2 mg/kg i.v.
  Antinociception ID50: 0.0411 mg/kg
[2]; [15]
  Antinociception ID50: 0.914 mg/kg
[2]; antagonist p.o. pretreatment, hydrocodone A90 3.2 mg/kg i.v.
  Antinociception ID50: 0.534 mg/kg
[2]; i.v. administration, hydrocodone 3.2 mg/kg i.v.
  time of peak effect of antinociception inhibition: 30 min
[2]; p.o. administration, hydrocodone 3.2 mg/kg i.v.
  time of peak effect of antinociception inhibition: 45 min
[3]
  change of levels at 60 min from those measured at 10 min: ~90%
[3]; i.p. 6β-naltrexol
  detectability after administration of 6β-naltrexol: no naltrexone was detectable
[3]; brain, intraperitoneal
  concentration at 10 min: 69 ± 20 ng/g
  concentration at 60 min: 9 ± 1 ng/g
[3]; in vivo
  concentration at 10 min: 54 ± 16 ng/mL
  concentration at 60 min: 4 ± 1 ng/mL
[4]
  fold more potent peripherally than centrally: nearly equipotent peripherally and centrally
[9]
  fraction converted to 6β-naltrexol: approximately 43%
[6]; [13]
  GI Transit ID50: 0.0456 mg/kg
[6]; [15]
  GI Transit ID50: 1.40 mg/kg
[6]; [14]
  GI Transit ID50: 0.194 mg/kg
[6]
  induction of diarrhea: strong induction of diarrhea was present

## CN1CC[C@]23c4c5ccc(O)c4O[C@H]2C(=O)CC[C@@]3(O)[C@H]1C5 [Oxymorphone]
[7]
  Bioavailability for CNS (central) effects: 10%

## CCOC(=O)C1(c2ccccc2)CCN(C)CC1 [Pethidine]
[7]
  Bioavailability for CNS (central) effects: 50-60%

## COc1cccc(C2(O)CCCCC2CN(C)C)c1 (stereo not shown) [Tramadol]
[7]
  Bioavailability for CNS (central) effects: 68-72%
